Experimental data: patent publication US11311624B2, “Inhibitors of MEK/PI3K, JAK/MEK, JAK/PI3K/mTOR and MEK/PI3K/mTOR biological pathways and methods for improving lymphatic uptake, bioavailability, and solubility of therapeutic compounds” (THE REGENTS OF THE UNIVERSITY OF MICHIGAN, priority 2017, dated 2022)
Where two headings read alike, the source gives them in different places.

How the values were obtained:
[1] = target: PI3Kβ (Homo sapiens, UniProt P42338); experiment: In vitro inhibition of PI3Kβ; type: biochemical; conditions: Table 14; read-out: IC50 (nM) PI3Kβ
[2] = target: PI3Kα (Homo sapiens, UniProt P42336); experiment: In vitro inhibition of PI3Kα; type: biochemical
[3] = target: PI3Kγ (Homo sapiens, UniProt P48736); experiment: In vitro inhibition of PI3Kγ; type: biochemical; conditions: Table 14; read-out: IC50 (nM) PI3Kγ
[4] = target: MEK1 (Homo sapiens, UniProt Q02750); experiment: In vitro inhibition of MEK1; type: biochemical
[5] = target: PI3Kδ (Homo sapiens, UniProt O00329); experiment: In vitro inhibition of PI3Kδ; type: biochemical
[6] = Tissue concentration partitioning (plasma, mesenteric lymph node, fat) after single oral dose in Maisine, LC-MS/MS; type: in vivo; conditions: mouse, mesenteric lymph node / plasma; mice, single oral 10 mg in Maisine, 4 hour time point; read-out: lymph/plasma ratio
Excerpt: Inhibitor compounds were synthesized to discover the underlying parameters needed in the development of chemical modifiers compatible with attachment to drug molecules to provide a drug having the physiochemical characteristics needed for uptake into the lymphatic system. […] This excipient vehicle contains long chain fatty acids and is used for hydrophobic compound solubilization.
Results were quantified using LC-MS/MS for plasma, mesenteric lymph node (LN) and mesenteric fat tissues.

[7] = tested on: pERK1/2 and pAKT; experiment: Immunoblot of treated A375 melanoma cells (FIG. 5A); type: cell-based, human; conditions: 1 h, 20 μM
Protocol: (§1) ADME (absorption, distribution, metabolism, and excretion) studies of ST-168 have shown that ST-168 is bioavailable following administration in mice.
In FIG. 5A, a two-dimensional assessment of ST-162 and ST-168. […] In FIG. 5B, assessment of dead cells in 3D melanoma spheroids post-treatment with ST-162 and ST-168. A375 melanoma spheroids were treated for 72 h with 20 μM each of ST-162 or ST-168 before staining with Calcein AM and ethidium homodimer-1 for fluorescent microscopy (live/dead viability assay, Molecular Probes). Green fluorescence indicates live cells, and red fluorescence indicates dead cells. Images were obtained with an Olympus IX70 fluorescent microscope using the SPOT advance program. In FIG. 5C tumor growth inhibition by ST-162 and ST-168 in a melanoma xenograft model. Tumor implantation consisted of inoculation of 5×10^6 A375 cells suspended in 100 μL of media into the flank of nude mice. Treatment was initiated once tumors reached >100 mm^3. […] Changes in tumor growth of A375 xenografts were assessed by conducting MRI imaging twice per week. Tumor volume changes between ST-162 and ST-168 treatment were determined to be statistically significant (p<0.05) using an unpaired Student's t test at the last time point. […]

[8] = tested on: A375 xenografts; experiment: Tumor growth inhibition in melanoma xenograft model (FIG. 5C); type: in vivo, nude mice; conditions: 400 mg/kg oral once daily, initial 30 days
Protocol: as §1
In FIG. 5A, a two-dimensional assessment of ST-162 and ST-168. […] In FIG. 5B, assessment of dead cells in 3D melanoma spheroids post-treatment with ST-162 and ST-168. A375 melanoma spheroids were treated for 72 h with 20 μM each of ST-162 or ST-168 before staining with Calcein AM and ethidium homodimer-1 for fluorescent microscopy (live/dead viability assay, Molecular Probes). Green fluorescence indicates live cells, and red fluorescence indicates dead cells. Images were obtained with an Olympus IX70 fluorescent microscope using the SPOT advance program. In FIG. 5C tumor growth inhibition by ST-162 and ST-168 in a melanoma xenograft model. Tumor implantation consisted of inoculation of 5×10^6 A375 cells suspended in 100 μL of media into the flank of nude mice. Treatment was initiated once tumors reached >100 mm^3. Mice were randomized into two treatment groups and treated once daily with either vehicle (200 μL of OraPlus) or 400 mg/kg each of ST-162 or ST-168 by oral gavage until sacrifice (42 days). Changes in tumor growth of A375 xenografts were assessed by conducting MRI imaging twice per week. Tumor volume changes between ST-162 and ST-168 treatment were determined to be statistically significant (p<0.05) using an unpaired Student's t test at the last time point. Experimental design: n=4-6 tumors/treatment group.

[9] = tested on: TGFα-transgenic mouse model of idiopathic pulmonary fibrosis (IPF); experiment: Dox-inducible TGFα-transgenic mouse model of idiopathic pulmonary fibrosis; type: in vivo, mice; conditions: 400 mg/kg PO, 3 week follow up CT scan
Protocol: Treatment of inflammatory-mediated fibrotic diseases were also evaluated using a doxycycline (Dox)-inducible transforming growth factor-α (TGFα)-transgenic mouse model of idiopathic pulmonary fibrosis (IPF) expressing lung-epithelial specific TGFα following Dox administration. […] Weekly lung micro-CT exams were used for assessment of fibrotic burden. Nintenadib (n=5) (100 mg/kg) was also evaluated for comparison. Lung tissue was examined microscopy in a subset of animals at the conclusion of the study.

[10] = Mesenteric lymph duct cannulation rat model, lymphatic transport (FIG. 8); type: in vivo; conditions: 50 mg/kg intraduodenal, pretreatment with cycloheximide
Excerpt: Evaluation of compound mechanism for lymphatic uptake was also undertaken.

[11] = Table 14, read-out: IC50 (nM) PI3Kα
[12] = Table 14, read-out: IC50 (nM) PI3Kδ

PI3Kδ, sequence (O00329 whole entry, species assumed): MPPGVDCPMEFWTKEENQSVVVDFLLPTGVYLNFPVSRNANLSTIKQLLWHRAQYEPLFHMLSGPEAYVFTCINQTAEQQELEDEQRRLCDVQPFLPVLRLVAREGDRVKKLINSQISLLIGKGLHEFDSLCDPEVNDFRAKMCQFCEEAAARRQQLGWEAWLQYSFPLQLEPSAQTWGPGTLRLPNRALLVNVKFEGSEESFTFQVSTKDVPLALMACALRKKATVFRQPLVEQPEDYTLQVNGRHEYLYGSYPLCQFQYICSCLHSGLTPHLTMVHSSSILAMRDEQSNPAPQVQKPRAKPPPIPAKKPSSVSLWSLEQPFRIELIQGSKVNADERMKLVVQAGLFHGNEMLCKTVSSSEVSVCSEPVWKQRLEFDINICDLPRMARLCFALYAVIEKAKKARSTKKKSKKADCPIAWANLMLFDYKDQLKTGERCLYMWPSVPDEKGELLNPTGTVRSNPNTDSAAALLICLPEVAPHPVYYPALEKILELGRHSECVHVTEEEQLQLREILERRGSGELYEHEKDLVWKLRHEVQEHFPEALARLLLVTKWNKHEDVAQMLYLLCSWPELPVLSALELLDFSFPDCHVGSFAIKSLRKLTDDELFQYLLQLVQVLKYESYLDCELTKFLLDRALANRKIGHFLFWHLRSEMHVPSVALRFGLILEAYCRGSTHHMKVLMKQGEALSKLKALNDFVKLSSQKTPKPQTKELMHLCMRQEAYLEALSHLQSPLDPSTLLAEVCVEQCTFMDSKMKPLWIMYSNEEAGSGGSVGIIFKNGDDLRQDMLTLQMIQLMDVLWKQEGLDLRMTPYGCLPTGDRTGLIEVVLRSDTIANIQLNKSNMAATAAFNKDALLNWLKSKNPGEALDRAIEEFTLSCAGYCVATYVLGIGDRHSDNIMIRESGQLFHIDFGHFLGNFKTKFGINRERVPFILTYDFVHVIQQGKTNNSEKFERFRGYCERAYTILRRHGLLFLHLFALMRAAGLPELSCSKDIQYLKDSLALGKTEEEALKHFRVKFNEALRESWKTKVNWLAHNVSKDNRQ
PI3Kδ, sequence (P27986 whole entry partner, species assumed): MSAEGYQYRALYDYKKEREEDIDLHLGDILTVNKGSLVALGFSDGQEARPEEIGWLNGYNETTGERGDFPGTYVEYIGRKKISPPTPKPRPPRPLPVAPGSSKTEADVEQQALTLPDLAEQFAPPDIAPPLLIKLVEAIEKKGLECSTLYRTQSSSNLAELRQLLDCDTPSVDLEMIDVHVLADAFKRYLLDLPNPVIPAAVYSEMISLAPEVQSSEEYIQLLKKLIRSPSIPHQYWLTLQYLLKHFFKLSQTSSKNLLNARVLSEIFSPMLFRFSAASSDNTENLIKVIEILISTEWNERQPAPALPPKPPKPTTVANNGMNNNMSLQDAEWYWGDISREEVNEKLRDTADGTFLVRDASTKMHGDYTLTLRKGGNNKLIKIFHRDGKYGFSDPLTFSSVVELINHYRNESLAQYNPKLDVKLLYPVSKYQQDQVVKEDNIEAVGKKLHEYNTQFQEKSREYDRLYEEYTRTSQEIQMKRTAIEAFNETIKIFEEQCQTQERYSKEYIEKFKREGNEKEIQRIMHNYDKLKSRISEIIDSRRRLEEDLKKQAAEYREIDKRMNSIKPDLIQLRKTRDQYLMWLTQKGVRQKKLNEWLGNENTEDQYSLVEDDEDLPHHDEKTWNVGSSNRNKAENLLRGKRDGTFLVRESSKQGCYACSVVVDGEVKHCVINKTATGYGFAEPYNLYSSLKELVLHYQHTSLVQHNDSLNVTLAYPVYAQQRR
PI3Kγ, sequence (P48736 whole entry, species assumed): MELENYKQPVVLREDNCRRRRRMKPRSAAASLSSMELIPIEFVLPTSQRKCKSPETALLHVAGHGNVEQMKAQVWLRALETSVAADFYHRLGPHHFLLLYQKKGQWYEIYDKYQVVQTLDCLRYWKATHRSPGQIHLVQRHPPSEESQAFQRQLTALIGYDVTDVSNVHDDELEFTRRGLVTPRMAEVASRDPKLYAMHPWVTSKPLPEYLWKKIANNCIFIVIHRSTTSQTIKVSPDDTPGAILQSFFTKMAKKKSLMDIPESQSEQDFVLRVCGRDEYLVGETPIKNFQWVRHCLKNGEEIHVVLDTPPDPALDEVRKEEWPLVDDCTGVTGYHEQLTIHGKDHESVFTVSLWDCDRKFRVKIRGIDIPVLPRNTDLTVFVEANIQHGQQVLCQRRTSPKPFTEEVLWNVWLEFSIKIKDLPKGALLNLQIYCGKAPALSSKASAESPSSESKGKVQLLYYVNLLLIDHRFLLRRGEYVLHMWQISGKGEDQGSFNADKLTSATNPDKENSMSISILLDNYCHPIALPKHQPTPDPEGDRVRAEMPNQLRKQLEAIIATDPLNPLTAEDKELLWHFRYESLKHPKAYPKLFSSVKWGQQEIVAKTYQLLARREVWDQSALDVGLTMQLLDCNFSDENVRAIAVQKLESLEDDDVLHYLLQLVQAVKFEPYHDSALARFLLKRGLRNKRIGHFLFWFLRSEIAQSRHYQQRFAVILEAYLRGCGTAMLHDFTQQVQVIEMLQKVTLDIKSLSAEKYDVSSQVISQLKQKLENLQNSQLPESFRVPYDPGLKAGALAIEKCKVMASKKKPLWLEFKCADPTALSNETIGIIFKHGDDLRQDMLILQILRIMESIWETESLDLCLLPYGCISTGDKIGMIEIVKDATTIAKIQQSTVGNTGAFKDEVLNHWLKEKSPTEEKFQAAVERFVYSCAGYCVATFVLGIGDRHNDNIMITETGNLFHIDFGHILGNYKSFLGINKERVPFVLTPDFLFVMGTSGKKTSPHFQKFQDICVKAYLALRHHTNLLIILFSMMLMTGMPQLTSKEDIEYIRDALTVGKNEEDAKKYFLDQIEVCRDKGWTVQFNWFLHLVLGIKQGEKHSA
PI3Kα, sequence (P42336 whole entry, species assumed): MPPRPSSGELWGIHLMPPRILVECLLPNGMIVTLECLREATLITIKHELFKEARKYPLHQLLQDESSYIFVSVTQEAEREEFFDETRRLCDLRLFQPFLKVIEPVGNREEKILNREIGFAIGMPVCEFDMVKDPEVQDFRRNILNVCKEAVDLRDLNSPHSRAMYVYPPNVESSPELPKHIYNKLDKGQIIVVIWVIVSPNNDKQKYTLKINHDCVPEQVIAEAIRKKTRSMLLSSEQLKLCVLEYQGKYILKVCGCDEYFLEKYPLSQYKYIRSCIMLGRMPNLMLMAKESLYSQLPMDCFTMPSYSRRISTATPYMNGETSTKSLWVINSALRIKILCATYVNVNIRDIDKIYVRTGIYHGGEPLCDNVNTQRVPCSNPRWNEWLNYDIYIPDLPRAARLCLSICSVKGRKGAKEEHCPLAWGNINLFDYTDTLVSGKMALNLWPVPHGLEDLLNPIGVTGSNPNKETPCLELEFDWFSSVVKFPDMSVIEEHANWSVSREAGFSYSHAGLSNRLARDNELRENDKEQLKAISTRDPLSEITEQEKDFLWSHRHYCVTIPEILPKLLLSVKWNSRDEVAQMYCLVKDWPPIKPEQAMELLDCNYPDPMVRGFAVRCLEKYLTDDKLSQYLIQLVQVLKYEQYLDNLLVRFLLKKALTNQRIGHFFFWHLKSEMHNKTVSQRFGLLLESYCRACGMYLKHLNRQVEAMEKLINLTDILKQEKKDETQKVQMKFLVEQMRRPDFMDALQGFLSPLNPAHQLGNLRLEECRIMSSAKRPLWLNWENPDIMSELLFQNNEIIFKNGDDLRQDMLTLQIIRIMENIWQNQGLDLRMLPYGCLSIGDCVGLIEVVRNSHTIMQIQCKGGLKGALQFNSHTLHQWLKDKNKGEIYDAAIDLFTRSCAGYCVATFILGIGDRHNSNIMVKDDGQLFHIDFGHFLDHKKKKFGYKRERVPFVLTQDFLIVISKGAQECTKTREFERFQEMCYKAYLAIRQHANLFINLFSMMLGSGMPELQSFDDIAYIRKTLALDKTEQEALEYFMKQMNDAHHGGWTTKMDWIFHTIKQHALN
PI3Kα, sequence (P27986 whole entry partner, species assumed): as the sequence (P27986 whole entry partner, species assumed) above
PI3Kβ, sequence (P42338 whole entry, species assumed): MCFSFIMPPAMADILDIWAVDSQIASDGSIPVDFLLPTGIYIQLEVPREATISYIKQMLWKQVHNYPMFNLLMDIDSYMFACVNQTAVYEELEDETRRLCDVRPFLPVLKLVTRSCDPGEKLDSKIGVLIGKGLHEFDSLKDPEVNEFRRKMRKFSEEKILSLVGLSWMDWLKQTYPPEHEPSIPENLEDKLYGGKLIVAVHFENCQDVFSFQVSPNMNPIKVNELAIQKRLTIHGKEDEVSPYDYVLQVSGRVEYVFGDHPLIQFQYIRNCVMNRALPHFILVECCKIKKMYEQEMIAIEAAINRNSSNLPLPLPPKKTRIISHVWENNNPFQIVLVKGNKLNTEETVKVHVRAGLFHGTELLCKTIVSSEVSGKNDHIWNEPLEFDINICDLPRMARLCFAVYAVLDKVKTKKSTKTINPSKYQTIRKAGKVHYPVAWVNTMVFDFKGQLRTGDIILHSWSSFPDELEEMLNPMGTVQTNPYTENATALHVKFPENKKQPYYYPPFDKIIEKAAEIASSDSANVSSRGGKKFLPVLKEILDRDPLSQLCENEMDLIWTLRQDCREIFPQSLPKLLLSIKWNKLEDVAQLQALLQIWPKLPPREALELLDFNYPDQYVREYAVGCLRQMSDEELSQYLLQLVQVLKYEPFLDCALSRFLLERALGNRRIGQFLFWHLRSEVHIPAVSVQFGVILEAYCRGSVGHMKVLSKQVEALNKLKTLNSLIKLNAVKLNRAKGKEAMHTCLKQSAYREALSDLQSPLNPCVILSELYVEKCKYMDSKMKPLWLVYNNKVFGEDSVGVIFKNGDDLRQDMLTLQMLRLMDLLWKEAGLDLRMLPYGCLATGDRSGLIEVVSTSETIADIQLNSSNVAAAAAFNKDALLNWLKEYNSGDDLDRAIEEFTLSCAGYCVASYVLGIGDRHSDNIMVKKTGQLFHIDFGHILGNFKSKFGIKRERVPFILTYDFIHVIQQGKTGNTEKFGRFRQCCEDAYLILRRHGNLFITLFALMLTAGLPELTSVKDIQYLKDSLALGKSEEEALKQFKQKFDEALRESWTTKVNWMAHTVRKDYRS
PI3Kβ, sequence (P27986 whole entry partner, species assumed): as the sequence (P27986 whole entry partner, species assumed) above

Compound | IC50 [1] | IC50 [2, 11] | IC50 [3] | IC50 [5, 12] | further results
O=C(NOCCOCCOCCOCCN(CCO)c1nc(N2CCOCC2)nc(-n2c(C(F)F)nc3ccccc32)n1)c1ccc(F)c(F)c1Nc1ccc(I)cc1F [ST-5-47] | 3880 ± 725 nM | 107 ± 21 nM | 2570 ± 364 nM | 137 ± 7 nM | IC50 [4]: 352 ± 2 nM
O=C(O)CCOCCOCCOCCONC(=O)c1ccc(F)c(F)c1Nc1ccc(I)cc1F [MV6-8] | – | – | – | – | IC50 [4]: 72.3 ± 1.9 nM
O=C(NCCCCCCCCCCCNC(=O)c1cccc2ccccc12)c1cccc2ccccc12 [Compound 4] | – | – | – | – | Kp at 4 h [6]: ~6
O=C(NOCCOCCOCCOCCN1CCN(c2nc(N3CCOCC3)nc(-n3c(C(F)F)nc4ccccc43)n2)CC1)c1ccc(F)c(F)c1Nc1ccc(I)cc1F [ST-162] | – | – | – | – | IC50 ([2]; Table 10B, inhibitory activity, unit inferred, read-out: PI3Kα): 191 ± 64 nM; down regulation of pERK1/2 and pAKT in cells [7]: down regulate; IC50 ([5]; Table 10B, inhibitory activity, unit inferred, read-out: PI3Kδ): 942 ± 120 nM; tumor growth [8]: tumor stasis
O=C(NOCCOCCOCCOCCC(=O)N1CCN(c2cnc3ccc(-c4cnc(Cl)c(NS(=O)(=O)c5ccc(F)cc5)c4)cc3n2)CC1)c1ccc(F)c(F)c1Nc1ccc(I)cc1F [ST-182] | – | – | – | – | reversal of lung fibroproliferative disease and pleural thickness (CT) [9]: strong activity for reversal; transport into the lymphatics after cycloheximide pretreatment [10]: significantly reduced

More lines, main results first:

IC50 [1] | IC50 [2, 11] | IC50 [3] | IC50 [5, 12] | Compound | further results
1870 ± 245 nM | 89.3 ± 9.5 nM | 502 ± 20 nM | 12.6 ± 1 nM | NOCCOCCOCCOCCNc1nc(N2CCOCC2)nc(-n2c(C(F)F)nc3ccccc32)n1 [ST-5-50] | –
136 ± 6.4 nM | 5.1 ± 1.1 nM | 30.7 ± 0.9 nM | 8.9 ± 0.5 nM | COCCN(CCO)c1nc(N2CCOCC2)nc(-n2c(C(F)F)nc3ccccc32)n1 [ST-6-01] | –
627 ± 174 nM | 148 ± 22 nM | 869 ± 11 nM | 46.7 ± 3.3 nM | CN(C)CCN(CCO)c1nc(N2CCOCC2)nc(-n2c(C(F)F)nc3ccccc32)n1 [ST-5-44] | –
404 ± 63 nM | 10.3 ± 1 nM | 55.2 ± 11.5 nM | 11.7 ± 2.2 nM | CC(=O)N(C)CCNc1nc(N2CCOCC2)nc(-n2c(C(F)F)nc3ccccc32)n1 [ST-5-31] | –
